Reference: patent US10954232B2, “Pyrazole derivative as ALK5 inhibitor and uses thereof” (HANMI PHARMACEUTICAL CO., LTD., priority 2016, dated 2021)

Molecular target: T1, ALK5 kinase (Homo sapiens, UniProt P36897)
T1 construct: GST; purchased Thermo Fisher Scientific Solutions
T1 sequence (P36897 34-503): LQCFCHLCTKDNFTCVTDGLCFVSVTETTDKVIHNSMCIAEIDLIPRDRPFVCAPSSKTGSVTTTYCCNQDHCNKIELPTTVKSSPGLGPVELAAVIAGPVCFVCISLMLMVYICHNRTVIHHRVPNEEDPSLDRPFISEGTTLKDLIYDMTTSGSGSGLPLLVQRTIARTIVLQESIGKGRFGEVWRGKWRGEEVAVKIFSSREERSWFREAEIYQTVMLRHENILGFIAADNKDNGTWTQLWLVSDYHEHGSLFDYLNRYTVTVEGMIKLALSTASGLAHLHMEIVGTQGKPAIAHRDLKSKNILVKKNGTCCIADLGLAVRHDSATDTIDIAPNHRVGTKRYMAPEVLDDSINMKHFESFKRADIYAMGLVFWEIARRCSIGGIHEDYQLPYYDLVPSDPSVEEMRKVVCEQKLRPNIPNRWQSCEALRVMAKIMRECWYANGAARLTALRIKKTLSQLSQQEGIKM
Test: Activity inhibition test on ALK5 enzyme (LanthaScreen Eu binding kinase assay)
Conditions: kinase tracer 178, 60 minutes at room temperature
Procedure, shortened: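 TR-FRET tracer-displacement format with final 5 nM ALK5, 2 nM Eu-GST antibody and 10 nM kinase tracer 178. Compound dilution series ran 1 μM–0.0001 μM, incubated 60 min at room temperature with stirring. Fluorescence was read ([…]), and IC50 came from percent inhibition versus control.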

Cc1cccc(-n2nc(C(=O)NCc3ccccc3F)cc2-c2ccc3nccnc3c2)n1 [Example 198, N-(2-fluorobenzyl)-1-(6-methylpyridin-2-yl)-5-(quinoxalin-6-yl)-1H-pyrazole-3-carboxyamide] was tested, and the IC50 was < 100 nM.

Cc1cccc(-n2nc(C(=O)NCc3ccc(Cl)cc3)cc2-c2ccc3nccnc3c2)n1 [Example 199, N-(4-chlorobenzyl)-1-(6-methylpyridin-2-yl)-5-(quinoxalin-6-yl)-1H-pyrazole-3-carboxyamide] was tested, and the IC50 was > 100 nM.

Molecule Cc1cccc(-n2nc(C(=O)NCc3cccc(Cl)c3)cc2-c2ccc3nccnc3c2)n1 [Example 200, N-(3-chlorobenzyl)-1-(6-methylpyridin-2-yl)-5-(quinoxalin-6-yl)-1H-pyrazole-3-carboxyamide] has an IC50 of 10 to 100 nM.

With Cc1cccc(-n2nc(C(=O)NCc3ccccc3Cl)cc2-c2ccc3nccnc3c2)n1 [Example 201, N-(2-chlorobenzyl)-1-(6-methylpyridin-2-yl)-5-(quinoxalin-6-yl)-1H-pyrazole-3-carboxyamide] the IC50 was 10 to 100 nM.

For Cc1cccc(-n2nc(C(=O)Nc3ccccc3F)cc2-c2ccc3nccnc3c2)c1 [Example 202, N-(2-fluorophenyl)-5-(quinoxalin-6-yl)-1-(m-tolyl)-1H-pyrazole-3-carboxyamide], the IC50 was > 1000 nM.

With COc1ccc(NC(=O)c2cc(-c3ccc4nccnc4c3)n(-c3cc(Cl)ccc3F)n2)cc1 [Example 203, 1-(5-chloro-2-fluorophenyl)-N-(4-methoxyphenyl)-5-(quinoxalin-6-yl)-1H-pyrazole-3-carboxyamide] the IC50 was > 100 nM.

CN(C)c1ccc(NC(=O)c2cc(-c3ccc4nccnc4c3)n(-c3cc(Cl)ccc3F)n2)cc1 [Example 204, 1-(5-chloro-2-fluorophenyl)-N-(4-(dimethylamino)phenyl)-5-(quinoxalin-6-yl)-1H-pyrazole-3-carboxyamide] was tested, and the IC50 was ~100 nM.

For COc1ccc(NC(=O)c2cc(-c3ccc4nccnc4c3)n(-c3cccc(C(F)(F)F)n3)n2)cc1 [Example 205], the IC50 was > 100 nM.

In the case of CN(C)c1ccc(NC(=O)c2cc(-c3ccc4nccnc4c3)n(-c3cccc(C(F)(F)F)n3)n2)cc1 [Example 206], the IC50 was > 100 nM.

With COc1ccc(NC(=O)c2cc(-c3ccc4nccnc4c3)n(-c3cccc(Br)n3)n2)cc1 [Example 207, 1-(6-bromopyridin-2-yl)-N-(4-methoxyphenyl)-5-(quinoxalin-6-yl)-1H-pyrazole-3-carboxyamide] the IC50 was 10 to 100 nM.

CN(C)c1ccc(NC(=O)c2cc(-c3ccc4nccnc4c3)n(-c3cccc(Br)n3)n2)cc1 [Example 208, 1-(6-bromopyridin-2-yl)-N-(4-(dimethylamino)phenyl)-5-(quinoxalin-6-yl)-1H-pyrazole-3-carboxyamide] was tested, and the IC50 was 10 to 100 nM.

For Cc1cccc(-n2nc(C(=O)Nc3ccccc3F)cc2-c2ccnc3ccccc23)n1 [Example 209, N-(2-fluorophenyl)-1-(6-methylpyridin-2-yl)-5-(quinolin-4-yl)-1H-pyrazole-3-carboxyamide], the IC50 was > 100 nM.

Molecule COc1ccc(NC(=O)c2cc(-c3ccnc4ccccc34)n(-c3cccc(C)n3)n2)cc1 [Example 210, N-(4-methoxyphenyl)-1-(6-methylpyridin-2-yl)-5-(quinolin-4-yl)-1H-pyrazole-3-carboxyamide] has an IC50 of 10 to 100 nM.

For Cc1cccc(-n2nc(C(=O)Nc3ccc(S(C)(=O)=O)cc3)cc2-c2ccnc3ccccc23)n1 [Example 211, 1-(6-methylpyridin-2-yl)-N-(4-(methylsulfonyl)phenyl)-5-(quinolin-4-yl)-1H-pyrazole-3-carboxyamide], the IC50 was < 10 nM.

For COc1ccc(NC(=O)c2cc(-c3ccnc4ccccc34)n(-c3cccc(C)n3)n2)cn1 [Example 212, N-(6-methoxypyridin-3-yl)-1-(6-methylpyridin-2-yl)-5-(quinolin-4-yl)-1H-pyrazole-3-carboxyamide], the IC50 was 36 nM.

For Cc1cccc(-n2nc(C(=O)Nc3ccc(Cl)nc3)cc2-c2ccnc3ccccc23)n1 [Example 213, N-(6-chloropyridin-3-yl)-1-(6-methylpyridin-2-yl)-5-(quinolin-4-yl)-1H-pyrazole-3-carboxyamide], the IC50 was 23 nM.

With Cc1cccc(-n2nc(C(=O)Nc3ccc4c(c3)OCO4)cc2-c2ccnc3ccccc23)n1 [Example 214, N-(benzo[d][1,3]dioxol-5-yl)-1-(6-methylpyridin-2-yl)-5-(quinolin-4-yl)-1H-pyrazole-3-carboxyamide] the IC50 was 30 nM.

COc1ccc(NC(=O)c2cc(-c3ccnc4ccccc34)n(-c3cccc(C)n3)n2)cc1F [Example 215, N-(3-fluoro-4-methoxyphenyl)-1-(6-methylpyridin-2-yl)-5-(quinolin-4-yl)-1H-pyrazole-3-carboxyamide] was tested, and the IC50 was 91 nM.

With COc1ccc(NC(=O)c2cc(-c3ccnc4ccccc34)n(-c3cccc(C)n3)n2)c(F)c1 [Example 216, N-(2-fluoro-4-methoxyphenyl)-1-(6-methylpyridin-2-yl)-5-(quinolin-4-yl)-1H-pyrazole-3-carboxyamide] the IC50 was ~100 nM.

COCCOc1ccc(NC(=O)c2cc(-c3ccnc4ccccc34)n(-c3cccc(C)n3)n2)cc1 [Example 217, N-(4-(2-methoxyethoxy)phenyl)-1-(6-methylpyridin-2-yl)-5-(quinolin-4-yl)-1H-pyrazole-3-carboxyamide] showed an IC50 of 18 nM.

Molecule Cc1cccc(-n2nc(C(=O)Nc3ccc(S(=O)(=O)C4CC4)cc3)cc2-c2ccc3nonc3c2)n1 [Example 218, 5-(benzo[c][1,2,5]oxadiazol-5-yl)-N-(4-(cyclopropylsulfonyl)phenyl)-1-(6-methylpyridin-2-yl)-1H-pyrazole-3-carboxyamide] has an IC50 of 10 to 100 nM.

In the case of Cc1cccc(-n2nc(C(=O)Nc3ccccc3F)cc2-c2ccc3ncoc3c2)n1 [Example 219, 5-(benzo[d]oxazol-6-yl)-N-(2-fluorophenyl)-1-(6-methylpyridin-2-yl)-1H-pyrazole-3-carboxyamide], the IC50 was 27 nM.

With Cc1cccc(-n2nc(C(=O)Nc3ccc(S(=O)(=O)C4CC4)cc3)cc2-c2ccc3ncoc3c2)n1 [Example 220] the IC50 was 3.2 nM.

For Cc1cccc(-n2nc(C(=O)NC3CC3)cc2-c2ccc(F)c(-c3cnn(CCO)c3)c2)n1 [Example 221, N-cyclopropyl-5-(4-fluoro-3-(1-(2-hydroxyethyl)-1H-pyrazol-4-yl)phenyl)-1-(6-methylpyridin-2-yl)-1H-pyrazole-3-carboxyamide], the IC50 was 4.3 nM.

With Cc1cccc(-n2nc(C(=O)Nc3cn[nH]c3)cc2-c2ccc(F)c(-c3cnn(CCO)c3)c2)n1 [Example 222, N-(1H-pyrazol-4-yl)-5-(4-fluoro-3-(1-(2-hydroxyethyl)-1H-pyrazol-4-yl)phenyl)-1-(6-methylpyridin-2-yl)-1H-pyrazole-3-carboxyamide] the IC50 was 1 nM.

In the case of Cc1cccc(-n2nc(C(=O)Nc3cnn(C)c3)cc2-c2ccc(F)c(-c3cnn(CCO)c3)c2)n1 [Example 223, N-(1-methyl-1H-pyrazol-4-yl)-5-(4-fluoro-3-(1-(2-hydroxyethyl)-1H-pyrazol-4-yl)phenyl)-1-(6-methylpyridin-2-yl)-1H-pyrazole-3-carboxyamide], the IC50 was 2.8 nM.

Cc1cccc(-n2nc(C(=O)Nc3cnn(S(C)(=O)=O)c3)cc2-c2ccc(F)c(-c3cnn(CCO)c3)c2)n1 [Example 224, N-(1-(methylsulfonyl)-1H-pyrazol-4-yl)-5-(4-fluoro-3-(1-(2-hydroxyethyl)-1H-pyrazol-4-yl)phenyl)-1-(6-methylpyridin-2-yl)-1H-pyrazole-3-carboxyamide] gave an IC50 of 3.1 nM.
